Measurements from publication PMC6245356, “A New Sesquiterpenoid Hydroquinone from the Marine Sponge Dysidea arenaria” (Molecules, 2008).

Target: HIV-1 RT (Human immunodeficiency virus type 1 group M subtype B, UniProt P04585)
Assay: in vitro anti-HIV activity: inhibition of HIV-1 RT
Format: biochemical
Details: for activity against HIV-1 RT (result in words) / IC50: in vitro; for activity against HIV-1 RT (result in words): same biological target as the IC50 values

Structure (SMILES) | activity against HIV-1 RT (result in words) | IC50 [µM] | other results
C=C1CCC[C@H]2[C@](CO)(Cc3cc(C(=O)OC)c(O)c(OC)c3O)[C@@H](C)CC[C@]12C [Compound 1, 19-hydroxy-polyfibrospongol B] | inactive |  | 
C=C1CCC[C@H]2[C@](C)(CC3=C(O)C(=O)C=C(N)C3=O)[C@@H](C)CC[C@]12C [Compound 5, smenospongine] |  | 176 | 
O=C(O)P(=O)(O)O [PFA, reference compound] |  |  | inhibition ratio of HIV-1 RT (at 0.05 µM, positive control): 85%
C=C1CCC[C@H]2[C@](CO)(Cc3cc(C(=O)OC)cc(OC)c3O)[C@@H](C)CC[C@]12C [Compound 2, polyfibrospongol B] | inactive |  | 
C=C1CCC[C@H]2[C@](C)(CC3=C(O)C(=O)C=C(OC)C3=O)[C@@H](C)CC[C@]12C [Compound 3, isosemnonorthoquinone] |  | 240 | 
C=C1CCC[C@H]2[C@](C)(CC(=O)C3=C(OC)C(O)OC3=O)[C@@H](C)CC[C@]12C (stereo partly drawn) [Compound 6, smenotronic acid] |  | 130 | 
